{
  "source": "patent US9611286B2",
  "about": "“Ruthenium carbon monoxide releasing molecules and uses thereof” (Alfama, Inc., priority 2011, dated 2017)",
  "key": {"[1]": {"system": "Myoglobin (Mb) from equine skeletal muscle", "assay": "Deoxy-myoglobin (Mb) carbonylation assay, CO release", "format": "biochemical", "settings": "after 15 minutes of incubation with deoxy-Mb, PBS pH 7.4", "description": "The CO donation capacity of Compound 1 by a deoxy-myoglobin (Mb) carbonylation assay was then evaluated (see, e.g., Clark et al., Am J Pathol (1992) 140:325-336).\nThe Mb assay was performed as described in Clark et al., Circ. Res. (2003) 93:2-8. A stock solution of Myoglobin (Mb) from equine skeletal muscle was prepared by dissolving the protein in PBS7.4. From this solution aliquots were taken to a cuvette (final concentration between ca. 60 μM) and Na2S2O4 in PBS, pH 7.4 (10 mg/mL solution; 0.1% final concentration) was added to convert met-Mb into deoxy-Mb. The reactions were done by mixing in the same cuvette and by this order, the Mb stock solution, the Na2S2O4 solution, a calculated amount of a solution of Compound I and adding PBS to obtain the desired final volume. […] Two controls were done in duplicate, the negative control (0% CO-Mb), a deoxy-Mb solution and the positive control (100% CO-Mb), obtained by bubbling pure CO gas into the deoxy-Mb solution for 10-15 min. The experimental spectrum was fitted as a weighted sum of the deoxy-Mb and the CO-Mb spectra. […] The absorbance spectrum was converted into a percentage of CO-Mb and the amount of CO liberated was calculated as molar equivalents of CO based on the initial concentration of Compound I (see FIG. 10)."}, "[2]": {"system": "CD8β", "assay": "CD8-β-chain mRNA expression in brain by qRT-PCR", "format": "in vivo, C57BL/6 mice", "description": "Mice were sacrificed, when infected control mice presented signs of ECM, and perfused intracardially with PBS to remove circulating RBC and leukocytes from the organs. RNA was isolated from brains, livers and lungs using Trizol Reagent (Invitrogen, Life technologies), according to the manufacturer's recommendation. The synthesis of the first-strand cDNA from the RNA templates was carried out using the Transcriptor First Strand cDNA Synthesis Kit (Roche). RT-PCR reactions were performed in the presence of SYBER Green (SYBER Green PCR master mix, Applied Biosystems) on an ABI PRISM 7500Fast (Applied Biosystem). Oligonucleotides used for the specific amplification of genes include:\nThe relative changes in gene expression between experimental and control groups were calculated by the Pfaffl method using hprt as internal control gene. Statistical Analysis"}, "[3]": {"system": "P. berghei ANKA GFP", "assay": "Adjunctive/adjuvant therapy with artesunate after onset of ECM", "format": "in vivo, C57BL/6 mice", "settings": "during administration of AS, between days 5 and 6", "description": "Thus, the inventors decided to test Compound 1 as an adjunctive and adjuvant therapy during the acute phase of ECM. […] Therefore, the inventors assessed the combination of Compound 1 and AS on parasite clearance and clinical recovery from ECM. Two AS and Compound 1 combinations were tested: (i) Adjunctive therapy: AS and Compound 1 were administered concomitantly for 2 days after the onset of CM followed by a 3-day treatment with Compound 1 alone, or (ii) Adjuvant therapy: AS was administered on the first 2 days after CM onset followed by Compound 1 administration for 3 more days.\nIn order to evaluate the clinical presentation of experimental cerebral malaria, a classification was used in clinical stages from 0 to 4 (see, e.g., Bienvenu et al., Acta Trop (2008) 106:104-8; Franklin et al., Proc Natl Acad Sci USA (2011) 108:3689-94). Briefly, stage 0 indicates no detectable clinical symptoms, stage 1, ruffled fur; stage 2, ruffled fur and unbalancing; stage 3, limb paralysis and respiratory distress and stage 4, convulsions, coma or death. The mice were clinically classified before and after the treatment to evaluate the clinical recovery.\nCORM-2 (Sigma-Aldrich) and Compound 2 were solubilized using 10% dimethyl sulfoxide (DMSO; Sigma-Aldrich) in PBS. CORM-3 and Compound 1 were solubilized in PBS (lx). CORM-2 solution (20 mg/kg of body weight) was administered intravenously (i.v.) according to the chosen schedules. […] As vehicle control, we used a solution of 10% DMSO in PBS administered i.v. The concentrations of CORM-2 used in the present study were based on previous reports (see, e.g., Chen et al. Am. J. Pathol. (2009) 175:422-429; Sun et al., World. J. Gastroenterol. (2008) 14:547-553). Artesunate is presented as a powder of artesunic acid. Artesunate (AS) solution was prepared by dissolving 60 mg of anhydrous artesunic acid in 1 ml of sodium bicarbonate (5%) to form sodium artesunate and then diluted in 5 ml of NaCl (0.9%). An AS solution (i.p.) was administered at 40 mg/Kg/day, as described previously (see, e.g., Bienvenu, Acta Trop (2008) 106:104-108). The AS treatment was started when the infected non-treated mice presented the clinical stage 1 for experimental cerebral malaria."}, "[4]": {"assay": "Brain histology (hematoxylin and eosin) in ECM", "format": "in vivo, C57BL/6 mice", "settings": "P. berghei ANKA-infected mice", "description": "For evaluation of histological features, mice were deeply anesthetized until cessation of breathing when infected control mice presented signs of ECM or ALI. The livers, lungs, and brains were removed and fixed in 10% buffered formalin for 24-72 h. Four-micron sections were cut from paraffin-embedded tissues and stained with hematoxylin and eosin according to standard procedures. Histological analyses were performed on a Leica microscope DM 2500 (Leica Microsystems)."}, "[5]": {"assay": "Quantification of Ru in tissues (bio-distribution)", "settings": "liver, kidney, spleen, lung and brain", "description": "Tricarbonyldichloro(methylthiogalactopyranoside) Ru(II) [Ru(CO)3Cl2(Gal-S-Me)], also referred to herein as Compound 1, was prepared by reacting CORM-2 with methylthiogalactopyranoside (Gal-S-Me) as described herein (see FIG. 2a and Materials and Methods section). The bio-distribution of Compound 1 in tissues was assessed by quantifying the levels of Ru and CO in the host by the method of Vreman et al., Anal Biochem (2005) 341:280-9. Liver, kidney, spleen, lung and brain tissues of non-infected mice (NI) were analyzed one hour after administration of Compound 1 and the control molecule, Compound 2 (FIG. 2b). […] The spleen is an organ that plays a crucial role in erythrophagocytosis, process important for red blood cell turnover, and recycling of iron. Erythrocytes are hydrolyzed by splenic macrophages, where the degradation of hemoglobin occurs, haem is release, and is catabolized by heme oxygenase-1 into biliverdin, carbon monoxide and ferrous iron (Fe^2+).\nThe tissue samples were weighed and dried at 80° C. overnight followed by 2 or more hours at 120° C. […] The Ru content was analyzed by an inductively coupled plasma-atomic emission spectrometer (ICP-AES) (model Ultima-Horiba Jobin Yvon, Longjumeau, France) using an external Ru standard method."}},
  "note": "“Also recorded” adds a separate entry of the source.",
  "data": [
    {"molecule": "C[SH]([C@@H]1OC(CO)[C@H](O)[C@H](O)C1O)[Ru]([Cl])([Cl])([CH]=O)([CH]=O)[CH]=O", "note": "(some centres unmarked) [Compound 1, Tricarbonyldichloro(methylthiogalactopyranoside) Ru(II)]", "values": [
      {"measurement": "CO transferred to Mb", "setting": "[1]", "result": "approximately 1 equivalent of CO"},
      {"measurement": "CD8-β-chain mRNA expression in the brain vs Compound 2-treated mice", "setting": "[2]", "result": "significantly lower"},
      {"measurement": "interference with the anti-malarial action of AS", "setting": "[3]", "result": "did not interfere with the anti-malarial action of AS in vivo"},
      {"measurement": "neuropathologic features in brain sections", "setting": "[4]", "result": "less hemorrhages, and the vessels had lower accumulation of pRBC and leukocytes"},
      {"measurement": "Ru distribution in organs", "setting": "[5]", "result": "marked affinity for the liver; also recorded: No signs of ruthenium are found in the brain"}
    ]}
  ]
}
